“And” between values parts separate entries of the source, which are not always exact repeats. Equal values may be shown once.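 The compound was tested at five concentrations on cells cultured in 96-well plates, with a 48-hour exposure period. GI50 marks 50% less growth.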 The source made the active and inactive calls. No stated cut-off is given here; in the data, active = GI50 up to about 1.1 µM and inactive = higher.
Key:
Test in all cases: NCI-60 cell line screen, 48 h
RXF 393 = tested on: RXF 393
SK-OV-3 = tested on: SK-OV-3
OVCAR-4 = tested on: OVCAR-4
M14 = tested on: M14
EKVX = tested on: EKVX
SK-MEL-28 = tested on: SK-MEL-28
HOP-92 = tested on: HOP-92
A549 = tested on: A549
SNB-75 = tested on: SNB-75
UACC-62 = tested on: UACC-62
MDA-MB-435 = tested on: MDA-MB-435
SF-295 = tested on: SF-295
UACC-257 = tested on: UACC-257
HT-29 = tested on: HT-29
SK-MEL-2 = tested on: SK-MEL-2
OVCAR-3 = tested on: OVCAR-3
NCI-H226 = tested on: NCI-H226
OVCAR-5 = tested on: OVCAR-5
UO-31 = tested on: UO-31
NCI-H522 = tested on: NCI-H522

SMILES | GI50 (RXF 393) | GI50 (SK-OV-3) | GI50 (OVCAR-4) | GI50 (M14) | GI50 (EKVX) | GI50 (SK-MEL-28) | GI50 (HOP-92) | GI50 (A549) | GI50 (SNB-75) | GI50 (UACC-62) | GI50 (MDA-MB-435) | GI50 (SF-295) | GI50 (UACC-257) | GI50 (HT-29) | GI50 (SK-MEL-2) | GI50 (OVCAR-3) | GI50 (NCI-H226) | GI50 (OVCAR-5) | GI50 (UO-31) | GI50 (NCI-H522)
CCN(CC)CCN1CCN=C2c3cc(OC)ccc3Nc3c([N+](=O)[O-])ccc1c32 | 0.843 µM (active) | 2.52 µM (inactive) | 1.07 µM (active) | 1 µM (active) | 1.69 µM (inactive) | 1 µM (active) | 2.21 µM (inactive) | 1.24 µM (inactive) | 1.95 µM (inactive) | 1 µM (active) | 1.28 µM (inactive) | 1.82 µM (inactive) | 2.59 µM (inactive) | 0.881 µM (active) | – | – | – | – | – | –
NC(=O)c1cc2ccccc2o/c1=N/c1ccccc1 | > 100 µM (inactive) | > 100 µM (inactive) | > 100 µM (inactive) | > 100 µM (inactive) | > 100 µM (inactive) | > 100 µM (inactive) | > 100 µM (inactive) | > 100 µM (inactive) | > 100 µM (inactive) | > 100 µM (inactive) | > 100 µM (inactive) | – | > 100 µM (inactive) | > 100 µM (inactive) | > 100 µM (inactive) | > 100 µM (inactive) | > 100 µM (inactive) | > 100 µM (inactive) | – | –
Cc1ccc(N2C3=C(CC4=C2CC(C)(C)CC4=O)C(=O)CC(C)(C)C3)cc1 | > 100 µM (inactive) | > 100 µM (inactive) | > 100 µM (inactive) | > 100 µM (inactive) | > 100 µM (inactive) | > 100 µM (inactive) | – | > 100 µM (inactive) | 27.6 µM (inactive) | > 100 µM (inactive) | > 100 µM (inactive) | > 100 µM (inactive) | > 100 µM (inactive) | > 100 µM (inactive) | – | > 100 µM (inactive) | > 100 µM (inactive) | > 100 µM (inactive) | > 100 µM (inactive) | –
O[C@H]1[C@H](O)[C@@H](O)[C@H](O)[C@@H](O)[C@H]1O [INOSITOL] | > 1000 µM (inactive) | > 1000 µM (inactive) | > 1000 µM (inactive) | > 1000 µM (inactive) | – | > 1000 µM (inactive) | > 1000 µM (inactive) | > 1000 µM (inactive) | 0.1 µM (active) | > 1000 µM (inactive) | > 1000 µM (inactive) | – | > 1000 µM (inactive) | > 1000 µM (inactive) | > 1000 µM (inactive) | > 1000 µM (inactive) | > 1000 µM (inactive) | > 1000 µM (inactive) | > 1000 µM (inactive) | –
COC1=CC2=NCCc3n[nH]c(c32)C1=O | – | – | – | 15 µM (inactive) | 16.9 µM (inactive) | 18.1 µM (inactive) | – | 24.3 µM (inactive) | – | 14 µM (inactive) | 11.5 µM (inactive) | 28.1 µM (inactive) | 15.6 µM (inactive) | 13 µM (inactive) | 15.3 µM (inactive) | 15.9 µM (inactive) | – | 18.5 µM (inactive) | 24.7 µM (inactive) | 3.51 µM (inactive)
C(/COc1cccnc1)=N\NC1=NCCN1 | > 100 µM (inactive) | > 100 µM (inactive) | > 100 µM (inactive) | > 100 µM (inactive) | > 100 µM (inactive) | > 100 µM (inactive) | > 100 µM (inactive) | > 100 µM (inactive) | > 100 µM (inactive) | > 100 µM (inactive) | – | > 100 µM (inactive) | > 100 µM (inactive) | > 100 µM (inactive) | > 100 µM (inactive) | > 100 µM (inactive) | > 100 µM (inactive) | > 100 µM (inactive) | > 100 µM (inactive) | > 100 µM (inactive)
O/N=C/c1ccc(O)c(O)c1 | > 100 µM (inactive) | > 100 µM (inactive) | 77.3 µM (inactive) | 97.5 µM (inactive) | 75.7 µM (inactive) | > 100 µM (inactive) | > 100 µM (inactive) | > 100 µM (inactive) | > 100 µM (inactive) | 93.3 µM (inactive) | – | > 100 µM (inactive) | > 100 µM (inactive) | > 100 µM (inactive) | > 100 µM (inactive) | 31.8 µM (inactive) | > 100 µM (inactive) | > 100 µM (inactive) | 54 µM (inactive) | 15.2 µM (inactive)
CCCCOCn1c(=O)[nH]c(=O)c2ccccc21 | 48.2 µM (inactive) | > 100 µM (inactive) | 35.7 µM (inactive) | > 100 µM (inactive) | 44.9 µM (inactive) | > 100 µM (inactive) | > 100 µM (inactive) | > 100 µM (inactive) | 13.3 µM (inactive) | > 100 µM (inactive) | > 100 µM (inactive) | > 100 µM (inactive) | 78.7 µM (inactive) | 40.3 µM (inactive) | 91.8 µM (inactive) | > 100 µM (inactive) | 49.5 µM (inactive) | > 100 µM (inactive) | 13.1 µM (inactive) | –
COc1cc(-c2oc3c(OC)c(OC)cc(O)c3c(=O)c2OC)ccc1O [TERNATIN] | 6.18 µM (inactive) and 3.87 µM (inactive) | 1.17 µM (inactive) and 2.19 µM (inactive) | – | – | 11.4 µM (inactive) | – | – | 14.9 µM (inactive) | – | 8.39 µM (inactive) and 4.7 µM (inactive) | 10.6 µM (inactive) | – | > 100 µM (inactive) | > 100 µM (inactive) | – | 11.7 µM (inactive) | – | 34.6 µM (inactive) | – | –
Cc1nc2ccc(Cl)cc2c2c1CCS2 | 47.5 µM (inactive) | > 100 µM (inactive) | 26.8 µM (inactive) | 71.3 µM (inactive) | – | > 100 µM (inactive) | – | 67 µM (inactive) | – | 99.8 µM (inactive) | 68.5 µM (inactive) | > 100 µM (inactive) | 97.7 µM (inactive) | 41.8 µM (inactive) | 57.9 µM (inactive) | 47.8 µM (inactive) | 51.6 µM (inactive) | > 100 µM (inactive) | 4.09 µM (inactive) | > 100 µM (inactive)
COc1ccc2c3c1OC1C(OC)(OC)CC4(C=C2)CN(C)CCC314 (configuration not stated) | > 100 µM (inactive) | > 100 µM (inactive) | > 100 µM (inactive) | – | > 100 µM (inactive) | > 100 µM (inactive) | – | > 100 µM (inactive) | > 100 µM (inactive) | > 100 µM (inactive) | > 100 µM (inactive) | > 100 µM (inactive) | > 100 µM (inactive) | > 100 µM (inactive) | – | > 100 µM (inactive) | > 100 µM (inactive) | > 100 µM (inactive) | > 100 µM (inactive) | –
CC(C)OCN1COCN/C1=N/C#N | > 100 µM (inactive) | > 100 µM (inactive) | > 100 µM (inactive) | > 100 µM (inactive) | > 100 µM (inactive) | > 100 µM (inactive) | > 100 µM (inactive) | > 100 µM (inactive) | > 100 µM (inactive) | > 100 µM (inactive) | – | > 100 µM (inactive) | > 100 µM (inactive) | 78.3 µM (inactive) | > 100 µM (inactive) | > 100 µM (inactive) | > 100 µM (inactive) | > 100 µM (inactive) | > 100 µM (inactive) | > 100 µM (inactive)
O=CN/C=C/c1ccc(O)c(O)c1 | > 100 µM (inactive) | > 100 µM (inactive) | > 100 µM (inactive) | > 100 µM (inactive) | > 100 µM (inactive) | > 100 µM (inactive) | > 100 µM (inactive) | > 100 µM (inactive) | 59.8 µM (inactive) | > 100 µM (inactive) | – | > 100 µM (inactive) | > 100 µM (inactive) | > 100 µM (inactive) | > 100 µM (inactive) | > 100 µM (inactive) | > 100 µM (inactive) | > 100 µM (inactive) | > 100 µM (inactive) | 52.1 µM (inactive)
COc1cccc2c(=O)c3c(O)c4cc(N(C)C)ccc4c(OC(C)=O)c3oc12 | 4.72 µM (inactive) | 32.4 µM (inactive) | 13.5 µM (inactive) | 9.98 µM (inactive) | 12.5 µM (inactive) | 10.5 µM (inactive) | 17.4 µM (inactive) | 26.1 µM (inactive) | 15.5 µM (inactive) | 12.9 µM (inactive) | 12.6 µM (inactive) | 25.1 µM (inactive) | 12.9 µM (inactive) | 14.1 µM (inactive) | 16.3 µM (inactive) | 4 µM (inactive) | 23.2 µM (inactive) | 38.9 µM (inactive) | 17.7 µM (inactive) | –
O=c1oc2c3ccc4ccccc4c3n(Cc3nc4ccccc4[nH]3)c2c2ccccc12 | 9.4 µM (inactive) | > 100 µM (inactive) | 24.9 µM (inactive) | 4.71 µM (inactive) | 23.6 µM (inactive) | > 26.7 µM (inactive) | > 29.3 µM (inactive) | 5.61 µM (inactive) | 5.51 µM (inactive) | 3.28 µM (inactive) | – | 9.14 µM (inactive) | 5.01 µM (inactive) | 4.48 µM (inactive) | 41.3 µM (inactive) | 7.08 µM (inactive) | 7.03 µM (inactive) | > 36.2 µM (inactive) | 1.95 µM (inactive) | 4.42 µM (inactive)
CN1CCN(/C(N)=C(\C#N)C(=O)Nc2ccc(Cl)cc2)CC1 | – | > 100 µM (inactive) | – | 30.6 µM (inactive) | 78.2 µM (inactive) | 46.6 µM (inactive) | > 100 µM (inactive) | > 100 µM (inactive) | > 100 µM (inactive) | 23 µM (inactive) | 37.5 µM (inactive) | 75.7 µM (inactive) | 59 µM (inactive) | > 100 µM (inactive) | 32.7 µM (inactive) | 41.7 µM (inactive) | > 100 µM (inactive) | > 100 µM (inactive) | 55.1 µM (inactive) | –

From ChEMBL document CHEMBL1201862, “PubChem BioAssay data set” (2004)
